{"source": "ChEMBL document CHEMBL5223175", "about": "“Discovery of novel 2-oximino-2-indolylacetamide derivatives as potent anticancer agents capable of inducing cell autophagy and ferroptosis” (Bioorg Med Chem, 2023)", "key": {"SK-HEP1": {"tested_on": "SK-HEP1", "assay": "Antiproliferative activity against human SK-HEP1 cells assessed as cell viability at 80 uM incubated for 72 hrs by CCK-8 assay", "assay_type": "functional", "conditions": "read-out: Activity"}, "5-8F [1]": {"tested_on": "5-8F", "assay": "Antiproliferative activity against human 5-8F cells assessed as cell viability at 80 uM incubated for 72 hrs by CCK-8 assay", "assay_type": "functional", "conditions": "read-out: Activity"}, "HeLa": {"tested_on": "HeLa", "assay": "Antiproliferative activity against human HeLa cells assessed as cell viability at 80 uM incubated for 72 hrs by CCK-8 assay", "assay_type": "functional", "conditions": "read-out: Activity"}, "CAL-27": {"tested_on": "CAL-27", "assay": "Antiproliferative activity against human CAL-27 cells assessed as reduction in cell viability incubated for 72 hrs by CCK-8 assay", "assay_type": "functional, cell-based", "conditions": "CAL-27, 72 h"}, "5-8F [2]": {"tested_on": "5-8F", "assay": "Antiproliferative activity against human 5-8F cells assessed as reduction in cell viability incubated for 72 hrs by CCK-8 assay", "assay_type": "functional, cell-based"}, "[3]": {"assay": "Toxicity in BALB/c mouse xenografted with human 5-8F cells assessed as decrease in body weight at 2 mg/kg, ip administered every 2 days", "assay_type": "organism-based", "conditions": "in vivo, 48 h, time 2 day"}, "FaDu": {"tested_on": "FaDu", "assay": "Antiproliferative activity against human FaDu cells assessed as reduction in cell viability incubated for 72 hrs by CCK-8 assay", "assay_type": "functional, cell-based"}, "[4]": {"assay": "Antiproliferative activity against human NP69SV40T cells assessed as reduction in cell viability incubated for 72 hrs by CCK-8 assay", "assay_type": "toxicity, cell-based"}}, "data": [{"smiles": "Cn1cc(/C(=N\\O)C(=O)Nc2cccc(F)c2)c2ccccc21", "values": [{"measurement": "viability at 80 µM", "setting": "SK-HEP1", "result": 40, "unit": "%"}, {"measurement": "viability at 80 µM", "setting": "5-8F [1]", "result": 59.3, "unit": "%"}, {"measurement": "viability at 80 µM", "setting": "HeLa", "result": 53.2, "unit": "%"}]}, {"smiles": "Cn1cc(/C(=N/O)C(=O)Nc2ccc(Br)c(F)c2)c2ccccc21", "values": [{"measurement": "viability at 80 µM", "setting": "SK-HEP1", "result": 60.6, "unit": "%"}, {"measurement": "viability at 80 µM", "setting": "5-8F [1]", "result": 75, "unit": "%"}, {"measurement": "viability at 80 µM", "setting": "HeLa", "result": 71.2, "unit": "%"}]}, {"smiles": "Cn1cc(/C(=N\\O)C(=O)Nc2ccc(C(F)(F)F)cc2)c2ccccc21", "values": [{"measurement": "viability at 80 µM", "setting": "SK-HEP1", "result": 15, "unit": "%"}, {"measurement": "viability at 80 µM", "setting": "5-8F [1]", "result": 10.2, "unit": "%"}, {"measurement": "viability at 80 µM", "setting": "HeLa", "result": 15.8, "unit": "%"}]}, {"smiles": "Cc1ccccc1NC(=O)/C(=N\\O)c1cn(C)c2ccccc12", "values": [{"measurement": "viability at 80 µM", "setting": "SK-HEP1", "result": 77.6, "unit": "%"}, {"measurement": "viability at 80 µM", "setting": "5-8F [1]", "result": 92.8, "unit": "%"}, {"measurement": "viability at 80 µM", "setting": "HeLa", "result": 86.3, "unit": "%"}]}, {"smiles": "Cn1cc(/C(=N\\O)C(=O)Nc2ccc(Br)c(F)c2)c2ccccc21", "values": [{"measurement": "viability at 80 µM", "setting": "SK-HEP1", "result": 75.6, "unit": "%"}, {"measurement": "viability at 80 µM", "setting": "5-8F [1]", "result": 86.8, "unit": "%"}, {"measurement": "viability at 80 µM", "setting": "HeLa", "result": 56.7, "unit": "%"}]}, {"smiles": "Cn1cc(/C(=N/O)C(=O)Nc2cccc(F)c2)c2ccccc21", "values": [{"measurement": "viability at 80 µM", "setting": "SK-HEP1", "result": 68, "unit": "%"}, {"measurement": "viability at 80 µM", "setting": "5-8F [1]", "result": 73.1, "unit": "%"}, {"measurement": "viability at 80 µM", "setting": "HeLa", "result": 61.2, "unit": "%"}]}, {"smiles": "Cn1cc(/C(=N/O)C(=O)Nc2ccc(Br)cc2)c2ccccc21", "values": [{"measurement": "viability at 80 µM", "setting": "SK-HEP1", "result": 29.1, "unit": "%"}, {"measurement": "viability at 80 µM", "setting": "5-8F [1]", "result": 31.5, "unit": "%"}, {"measurement": "viability at 80 µM", "setting": "HeLa", "result": 18.4, "unit": "%"}]}, {"smiles": "Cn1cc(/C(=N/O)C(=O)Nc2ccc(Cl)cc2)c2ccccc21", "values": [{"measurement": "viability at 80 µM", "setting": "SK-HEP1", "result": 71.6, "unit": "%"}, {"measurement": "viability at 80 µM", "setting": "5-8F [1]", "result": 47.2, "unit": "%"}, {"measurement": "viability at 80 µM", "setting": "HeLa", "result": 57.2, "unit": "%"}]}, {"smiles": "Cn1cc(/C(=N/O)C(=O)Nc2cccc(Cl)c2)c2ccccc21", "values": [{"measurement": "viability at 80 µM", "setting": "SK-HEP1", "result": 64.6, "unit": "%"}, {"measurement": "viability at 80 µM", "setting": "5-8F [1]", "result": 78, "unit": "%"}, {"measurement": "viability at 80 µM", "setting": "HeLa", "result": 64.6, "unit": "%"}]}, {"smiles": "Cc1ccccc1NC(=O)/C(=N/O)c1cn(C)c2ccccc12", "values": [{"measurement": "viability at 80 µM", "setting": "SK-HEP1", "result": 76.8, "unit": "%"}, {"measurement": "viability at 80 µM", "setting": "5-8F [1]", "result": 95.3, "unit": "%"}, {"measurement": "viability at 80 µM", "setting": "HeLa", "result": 77.1, "unit": "%"}]}, {"smiles": "Cn1cc(/C(=N/O)C(=O)Nc2ccc(C(F)(F)F)cc2)c2ccccc21", "values": [{"measurement": "viability at 80 µM", "setting": "SK-HEP1", "result": 51.5, "unit": "%"}, {"measurement": "viability at 80 µM", "setting": "5-8F [1]", "result": 45, "unit": "%"}, {"measurement": "viability at 80 µM", "setting": "HeLa", "result": 25.7, "unit": "%"}]}, {"smiles": "COc1cccc2c1C(=O)c1c(O)c3c(c(O)c1C2=O)C[C@@](O)(C(=O)CO)C[C@@H]3O[C@H]1C[C@H](N)[C@H](O)[C@H](C)O1", "note": "[DOXORUBICIN]", "values": [{"measurement": "IC50", "setting": "CAL-27", "result": 180, "unit": "nM"}, {"measurement": "IC50", "setting": "5-8F [2]", "result": 340, "unit": "nM"}, {"measurement": "Activity", "setting": "[3]", "result": "Toxic"}, {"measurement": "IC50", "setting": "FaDu", "result": 160, "unit": "nM"}, {"measurement": "IC50 at 72 h", "setting": "[4]", "result": 110, "unit": "nM"}]}, {"smiles": "Cn1cc(/C(=N\\O)C(=O)Nc2cccc(Cl)c2)c2ccccc21", "values": [{"measurement": "viability at 80 µM", "setting": "SK-HEP1", "result": 31.4, "unit": "%"}, {"measurement": "viability at 80 µM", "setting": "5-8F [1]", "result": 12.7, "unit": "%"}, {"measurement": "viability at 80 µM", "setting": "HeLa", "result": 14, "unit": "%"}]}, {"smiles": "Cn1cc(/C(=N\\O)C(=O)Nc2ccc(Br)cc2)c2ccccc21", "values": [{"measurement": "viability at 80 µM", "setting": "SK-HEP1", "result": 28.9, "unit": "%"}, {"measurement": "viability at 80 µM", "setting": "5-8F [1]", "result": 22.1, "unit": "%"}, {"measurement": "viability at 80 µM", "setting": "HeLa", "result": 14.8, "unit": "%"}]}]}
